Reference: patent US9365619B2, “IgG-binding peptide and method for detecting and purifying IgG using same” (Otsuka Chemical Co., Ltd., priority 2011, dated 2016)
Where two headings read alike, the source gives them in different places. Bridge positions count the residues as written; N and C are the ends. Peptide text beside a SMILES is read from it.

Target: human IgG
Experiment: Surface plasmon resonance (SPR) analysis of synthetic peptide binding to human IgG
Conditions: for affinity compared with the parent peptide, in words: compared with GFc-C35-3/15 (T7H, N8R)
Method: In order to narrow down the amino acid region to be studied, a peptide in which one amino acid was deleted from each end of GFc-C35 (GFc-C35-2/16) and a peptide in which two amino acids were deleted from each end of CFc-C35 (GFc-C35-3/15) were synthesized. Among these peptides, based on the GFc-C35-3/15 synthetic peptide, the effect of the introduction of amino acid mutations on affinity was evaluated. That is, the contribution of each amino acid substitution to affinity was evaluated by synthesizing peptides substituted with frequently or occasionally observed amino acids obtained from the phage libraries and subjecting the resulting synthetic peptides to binding analysis.
Based on the synthetic peptide C35A, peptides substituted with amino acids observed at high frequency in the aforementioned phage libraries were synthesized by introducing amino acid mutations, and in a similar manner to the above, their binding to human IgG was analyzed by surface plasmon resonance (SPR) analysis to evaluate the contribution of each amino acid substitution to affinity.

[1] = SPR, synthetic peptide binding to human IgG, read-out: Kd

SMILES	Kd [1] [nM]	further results
CC(C)C[C@@H]1NC(=O)[C@H](CC(N)=O)NC(=O)CNC(=O)[C@H](CC(N)=O)NC(=O)[C@H]([C@@H](C)O)NC(=O)[C@H](Cc2ccc(O)cc2)NC(=O)[C@H](C)NC(=O)[C@@H](NC(=O)[C@@H](N)CC(=O)O)CSSC[C@@H](C(=O)N[C@H](C(N)=O)[C@@H](C)O)NC(=O)[C@H](Cc2c[nH]c3ccccc23)NC(=O)[C@H](C(C)C)NC1=O [GFc-C35-3/15 (T5A), DCAYTNGNLVWCT] (H-DCAYTNGNLVWCT-NH2; disulfide 2-12)	61000	affinity compared with the original peptide, in words (compared with GFc-C35-3/15): highest affinity
CC(C)C[C@@H]1NC(=O)[C@H](CCC(=O)O)NC(=O)CNC(=O)[C@H](CCCNC(=N)N)NC(=O)[C@H](Cc2c[nH]cn2)NC(=O)[C@H](Cc2ccc(O)cc2)NC(=O)[C@H](C)NC(=O)[C@@H](NC(=O)[C@H](CO)NC(=O)[C@@H]2CCCN2C(=O)CN)CSSC[C@@H](C(=O)N[C@H](C(=O)N[C@@H](Cc2ccccc2)C(=O)N[C@@H](Cc2c[nH]cn2)C(N)=O)[C@@H](C)O)NC(=O)[C@H](Cc2c[nH]c3ccccc23)NC(=O)[C@H](C(C)C)NC1=O [C35A (D3S), GPSCAYHRGELVWCTFH] (H-GPSCAYHRGELVWCTFH-NH2; disulfide 4-14)	28.5	–
CC(C)C[C@@H]1NC(=O)[C@H](CC(N)=O)NC(=O)CNC(=O)[C@H](CC(N)=O)NC(=O)[C@H]([C@@H](C)O)NC(=O)[C@H](Cc2ccc(O)cc2)NC(=O)[C@H]([C@@H](C)O)NC(=O)[C@@H](NC(=O)[C@@H](N)CC(=O)O)CSSC[C@@H](C(=O)N[C@@H](CO)C(N)=O)NC(=O)[C@H](Cc2c[nH]c3ccccc23)NC(=O)[C@H](C(C)C)NC1=O [GFc-C35-3/15 (T15S), DCTYTNGNLVWCS] (H-DCTYTNGNLVWCS-NH2; disulfide 2-12)	34000	–
CC[C@H](C)[C@@H]1NC(=O)[C@H](CC(C)C)NC(=O)[C@H](CC(N)=O)NC(=O)CNC(=O)[C@H](CCCNC(=N)N)NC(=O)[C@H](Cc2c[nH]cn2)NC(=O)[C@H](Cc2ccc(O)cc2)NC(=O)[C@H]([C@@H](C)O)NC(=O)[C@@H](NC(=O)[C@@H](N)CC(=O)O)CSSC[C@@H](C(=O)N[C@H](C(N)=O)[C@@H](C)O)NC(=O)[C@H](Cc2c[nH]c3ccccc23)NC1=O [GFc-C35-3/15 (T7H, N8R, V12I), DCTYHRGNLIWCT] (H-DCTYHRGNLIWCT-NH2; disulfide 2-12)	4800	affinity compared with the parent peptide, in words: reduced affinity
CC(C)C[C@@H]1NC(=O)[C@H](CCC(=O)O)NC(=O)CNC(=O)[C@H](CCCNC(=N)N)NC(=O)[C@H](Cc2c[nH]cn2)NC(=O)[C@H](Cc2ccc(O)cc2)NC(=O)[C@H](C)NC(=O)[C@@H](NC(=O)[C@H](CC(=O)O)NC(=O)[C@@H]2CCCN2C(=O)CN)CSSC[C@@H](C(=O)N[C@H](C(=O)N[C@@H](Cc2ccccc2)C(=O)N[C@@H](Cc2ccc(O)cc2)C(N)=O)[C@@H](C)O)NC(=O)[C@H](Cc2c[nH]c3ccccc23)NC(=O)[C@H](C(C)C)NC1=O [C35A (H17Y), GPDCAYHRGELVWCTFY] (H-GPDCAYHRGELVWCTFY-NH2; disulfide 4-14)	12	–
CC(C)C[C@@H]1NC(=O)[C@H](CC(N)=O)NC(=O)CNC(=O)[C@H](CCCNC(=N)N)NC(=O)[C@H](Cc2c[nH]cn2)NC(=O)[C@H](Cc2ccc(O)cc2)NC(=O)[C@H](C)NC(=O)[C@@H](NC(=O)[C@@H](N)CC(=O)O)CSSC[C@@H](C(=O)N[C@H](C(N)=O)[C@@H](C)O)NC(=O)[C@H](Cc2c[nH]c3ccccc23)NC(=O)[C@H](C(C)C)NC1=O [GFc-C35-3/15 (T7H, N8R, T5A), DCAYHRGNLVWCT] (H-DCAYHRGNLVWCT-NH2; disulfide 2-12)	250	affinity compared with the parent peptide, in words: affinity-enhancing effect
CC(C)C[C@@H]1NC(=O)[C@H](CC(N)=O)NC(=O)CNC(=O)[C@H](CC(N)=O)NC(=O)[C@H]([C@@H](C)O)NC(=O)[C@H](Cc2ccc(O)cc2)NC(=O)[C@H](CO)NC(=O)[C@@H](NC(=O)[C@@H](N)CC(=O)O)CSSC[C@@H](C(=O)N[C@H](C(N)=O)[C@@H](C)O)NC(=O)[C@H](Cc2c[nH]c3ccccc23)NC(=O)[C@H](C(C)C)NC1=O [GFc-C35-3/15 (T5S), DCSYTNGNLVWCT] (H-DCSYTNGNLVWCT-NH2; disulfide 2-12)	120000	–
CC[C@H](C)[C@@H]1NC(=O)[C@H](CC(C)C)NC(=O)[C@H](CC(N)=O)NC(=O)CNC(=O)[C@H](CC(N)=O)NC(=O)[C@H]([C@@H](C)O)NC(=O)[C@H](Cc2ccc(O)cc2)NC(=O)[C@H]([C@@H](C)O)NC(=O)[C@@H](NC(=O)[C@@H](N)CC(=O)O)CSSC[C@@H](C(=O)N[C@H](C(N)=O)[C@@H](C)O)NC(=O)[C@H](Cc2c[nH]c3ccccc23)NC1=O [GFc-C35-3/15 (V12I), DCTYTNGNLIWCT] (H-DCTYTNGNLIWCT-NH2; disulfide 2-12)	12000	–
CC(C)C[C@@H]1NC(=O)[C@H](CCC(=O)O)NC(=O)CNC(=O)[C@H](CCCNC(=N)N)NC(=O)[C@H](Cc2c[nH]cn2)NC(=O)[C@H](Cc2ccc(O)cc2)NC(=O)[C@H](C)NC(=O)[C@@H](NC(=O)[C@H](CC(=O)O)NC(=O)[C@@H]2CCCN2C(=O)[C@@H](N)CO)CSSC[C@@H](C(=O)N[C@H](C(=O)N[C@@H](Cc2ccccc2)C(=O)N[C@@H](Cc2c[nH]cn2)C(N)=O)[C@@H](C)O)NC(=O)[C@H](Cc2c[nH]c3ccccc23)NC(=O)[C@H](C(C)C)NC1=O [C35A (G1S), SPDCAYHRGELVWCTFH] (H-SPDCAYHRGELVWCTFH-NH2; disulfide 4-14)	9.3	–
CC(C)C[C@@H]1NC(=O)[C@H](CCC(=O)O)NC(=O)CNC(=O)[C@H](CCCNC(=N)N)NC(=O)[C@H](Cc2c[nH]cn2)NC(=O)[C@H](Cc2ccc(O)cc2)NC(=O)[C@H](C)NC(=O)[C@@H](NC(=O)[C@H](CC(=O)O)NC(=O)[C@@H]2CCCN2C(=O)CN)CSSC[C@@H](C(=O)N[C@H](C(=O)N[C@@H](Cc2ccccc2)C(=O)N[C@@H](Cc2c[nH]cn2)C(N)=O)[C@@H](C)O)NC(=O)[C@H](Cc2c[nH]c3ccccc23)NC(=O)[C@H](C(C)C)NC1=O [Peptide C35A, GPDCAYHRGELVWCTFH] (H-GPDCAYHRGELVWCTFH-NH2; disulfide 4-14)	9	–
CC(C)C[C@@H]1NC(=O)[C@H](CCC(=O)O)NC(=O)CNC(=O)[C@H](CCCNC(=N)N)NC(=O)[C@H](Cc2c[nH]cn2)NC(=O)[C@H](Cc2ccc(O)cc2)NC(=O)[C@H](C)NC(=O)[C@@H](NC(=O)[C@@H](N)CCCNC(=N)N)CSSC[C@@H](C(=O)N[C@@H](CO)C(N)=O)NC(=O)[C@H](Cc2c[nH]c3ccccc23)NC(=O)[C@H](C(C)C)NC1=O [RCAYHRGELVWCS] (H-RCAYHRGELVWCS-NH2; disulfide 2-12)	–	Kd (SPR sensorgram analysis, human IgG, read-out: affinity (Kd value)): 147 nM
CC(C)C[C@@H]1NC(=O)[C@H](CC(N)=O)NC(=O)CNC(=O)[C@H](CCCNC(=N)N)NC(=O)[C@H](Cc2c[nH]cn2)NC(=O)[C@H](Cc2c[nH]c3ccccc23)NC(=O)[C@H]([C@@H](C)O)NC(=O)[C@@H](NC(=O)[C@@H](N)CC(=O)O)CSSC[C@@H](C(=O)N[C@H](C(N)=O)[C@@H](C)O)NC(=O)[C@H](Cc2c[nH]c3ccccc23)NC(=O)[C@H](C(C)C)NC1=O [GFc-C35-3/15 (T7H, N8R, Y6W), DCTWHRGNLVWCT] (H-DCTWHRGNLVWCT-NH2; disulfide 2-12)	2000	affinity compared with the parent peptide, in words: reduced affinity
